Test results taken from patent publication US20150368248A1, “2-SUBSTITUTED-6-BIARYLMETHYLAMINO-9-CYCLOPENTYL-9H-PURINE DERIVATIVES, USE THEREOF AS MEDICAMENTS, AND PHARMACEUTICAL COMPOSITIONS” (UNIVERZITA PALACKEHO V OLOMOUCI, priority 2013, published 2015).
Where two headings read alike, the source gives them in different places.

Columns and labels:
CDK1/cyclin B = target: T1, CDK1/cyclin B (Homo sapiens, UniProt P06493); assay: Kinase inhibition assay, recombinant kinase, [γ-33P]ATP; type: biochemical; conditions: read-out: Kinase inhibition IC50, CDK1
T1 construct: made in house; host or cells: Sf9 insect cells (baculovirus)
Experimental: CDK2/Cyclin E kinase was produced in Sf9 insect cells via baculoviral infection and purified on a NiNTA column (Qiagen). CDK5/p35, CDK7Cyclin H/MAT1 and CDK9/Cyclin T1 was purchased from ProQinase GmbH. […] The reactions were stopped by adding 5 μL of 3% aq H3PO4. Aliquots were spotted onto P-81 phosphocellulose (Whatman), washed 3× with 0.5% aq H3PO4 and finally air-dried.
(§1) CDK1/cyclin B and CDK2/cyclin E kinases were produced in Sf9 insect cells via baculoviral infection, while CDK5/p35, CDK7/cyclin H/MAT1, and CDK9/cyclin T1 were purchased from ProQinase (Freiburg, Germany) and assayed as described previously (35). The kinase reactions were assayed with 1 mg/ml histone H1 (for CDK2 and CDK5) or (YSPTSPS)2KK peptide (for CDK7 and CDK9) in the presence of 15/0.15/1.5/1.5 […] ATP (for CDK2/CDK5/CDK7CDK9), […] [γ-^33P]ATP and of the test compound in a final volume of […]. The reaction buffer contained 60 mM HEPES-NaOH, pH 7.5, 3 mM MgCl2, 3 mM MnCl2, 3 mM Na-orthovanadate, 1.2 mM DTT, 2.5 mg/50 ml PEG20.000. The reactions were stopped by adding […] of 3% H3PO4. Aliquots were spotted onto P-81 phosphocellulose (Whatman, GE Healthcare Biosciences, Pittsburgh, USA), washed 3 times with 0.5% H3PO4 and finally air-dried. Kinase inhibition was quantified using a FLA-7000 digital image analyzer (Fujifilm, Tokyo, Japan).

Hep3B = assay: MTT cytotoxicity assay (Example 30); type: cell-based, human; conditions: Homo sapiens, Hep3B, 72 h; MTT, three days after drug addition; read-out: Inhibitory concentration IC50, Hep3B
Experimental: Cytotoxicity of the compounds is the major property determining their anticancer effect in vivo. One of the parameters used, as the basis for cytotoxicity assays, is the metabolic activity of viable cells.
We have been using the following cell lines: HUH-7 and PLC/PRF/5 cell lines were maintained in DMEM supplemented with 10% fetal bovine serum, penicillin (100 U/ml) and streptomycin (100 μg/ml). […] HepG2 cell line was maintained in EMEM supplemented with 10% fetal bovine serum, sodium pyruvate (0.11 g/1), penicillin (100 U/ml) and streptomycin (100 μg/ml). All cell lines were cultivated at 37° C. in 5% CO2. For cytotoxicity assays, 3000 cells (10000 cells in case of HepG2 cell line) were seeded into each well of 96 well plate and the next day tested compounds were added at various concentrations in triplicates. Three days after drug addition MTT stock solution (5 mg/ml) was added into each well and incubated for 4 h. After this incubation period, produced formazan was dissolved by DMSO and final absorbance was measured at 570 nm with Synergy H4 Hybrid Multi-Mode Microplate Reader.

CDK5/p35 = target: T2, CDK5/p35 (Homo sapiens, UniProt Q00535); assay: Kinase inhibition assay, recombinant kinase, [γ-33P]ATP; type: biochemical; conditions: read-out: Residual kinase activity, CDK5; for remaining activity at 0.1 µM: 100 nM; for remaining activity at 1 µM: 1000 nM
T2 construct: purchased ProQinase GmbH (Freiburg, Germany)
Experimental: (§2) CDK2/Cyclin E kinase was produced in Sf9 insect cells via baculoviral infection and purified on a NiNTA column (Qiagen). CDK5/p35, CDK7Cyclin H/MAT1 and CDK9/Cyclin T1 was purchased from ProQinase GmbH. The kinase reactions were assayed with 1 mg/mL histone H1 (for CDK2 and CDK5) or (YSPTSPS)2KK peptide (for CDK7 and CDK9) in the presence of 15/0.15/1.5/1.5 μM ATP (for CDK2/CDK5/CDK7CDK9), 0.05 μCi [γ-^33P]ATP and of the test compound in a final volume of 10 μL, all in a reaction buffer (60 mM HEPES-NaOH, pH 7.5, 3 mM MgCl2, 3 mM MnCl2, 3 μM Na-orthovanadate, 1.2 mM DTT, 2.5 μg/50 μl PEG20,000). The reactions were stopped by adding 5 μL of 3% aq H3PO4. Aliquots were spotted onto P-81 phosphocellulose (Whatman), washed 3× with 0.5% aq H3PO4 and finally air-dried.
as §1

CDK9/Cyclin T1 = target: T3, CDK9/Cyclin T1 (Homo sapiens, UniProt P50750); assay: as above; type: biochemical; conditions: read-out: Residual kinase activity, CDK9; for remaining activity at 0.1 µM: 100 nM; for remaining activity at 1 µM: 1000 nM
T3 construct: purchased ProQinase GmbH (Freiburg, Germany)
Experimental: as §2, §1

CDK7/cyclin H/MAT1 = target: T4, CDK7/cyclin H/MAT1 (Homo sapiens, UniProt P50613); assay: as above; type: biochemical; conditions: read-out: Residual kinase activity, CDK7; for remaining activity at 0.1 µM: 100 nM; for remaining activity at 1 µM: 1000 nM
T4 construct: purchased ProQinase GmbH (Freiburg, Germany)
Experimental: as §2, §1

[1] = system: human umbilical vein endothelial cells (HUVEC); assay: HUVEC proliferation, Calcein AM; type: cell-based; conditions: Homo sapiens, HUVEC, read-out: Inhibitory concentration for HUVEC cells - IC50
Experimental: Novel 2-substituted-6-biarylmethylamino-9-cyclopentyl-9H-purine derivatives were tested for their potential anti-angiogenic properties; we analyzed its influence on the proliferation (Tab. 9), migration and tube formation of human umbilical vein endothelial cells (HUVEC). Confluent HUVECs were seeded in 96-well microtiter plates to detect their proliferation for 24 or 72 h using Calcein AM solution (Invitrogen) and a Fluoroskan Ascent microplate reader (Labsystems) as described previously (Krystof et al., 2011, Eur J Med Chem. 2011 September; 46(9):4289-94).

[2] = system: human umbilical vein endothelial cells (HUVECs); assay: Migration scratch assay; type: cell-based; parameters: key to Wound area: ++: open; +: partly open; 0: closed; conditions: 24 h
Experimental: Migration assay was performed as described previously (Krystof et al., 2011, Eur J Med Chem.; 46(9):4289-94). Briefly, confluent HUVECs were scratched and immediately treated for 24 h with various doses of compounds. After incubation each well was photographed using a DP Controller system (Olympus) connected to a Olympus BX50 microscope. Migration was expressed as the proportion of pixels of the wound area in the image that were not covered by cells using “in house” software.

T3 sequence (P50750 whole entry): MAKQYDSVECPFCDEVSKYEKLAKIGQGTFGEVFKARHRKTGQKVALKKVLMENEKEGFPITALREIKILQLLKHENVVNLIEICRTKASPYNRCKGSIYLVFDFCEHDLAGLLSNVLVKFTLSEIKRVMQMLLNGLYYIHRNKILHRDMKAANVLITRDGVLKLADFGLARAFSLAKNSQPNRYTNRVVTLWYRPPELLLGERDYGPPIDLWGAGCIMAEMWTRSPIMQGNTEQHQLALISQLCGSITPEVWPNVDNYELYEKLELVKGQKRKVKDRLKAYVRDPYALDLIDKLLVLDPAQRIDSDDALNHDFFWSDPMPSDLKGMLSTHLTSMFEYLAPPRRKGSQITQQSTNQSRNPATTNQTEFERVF
T3 sequence (O60563 whole entry partner): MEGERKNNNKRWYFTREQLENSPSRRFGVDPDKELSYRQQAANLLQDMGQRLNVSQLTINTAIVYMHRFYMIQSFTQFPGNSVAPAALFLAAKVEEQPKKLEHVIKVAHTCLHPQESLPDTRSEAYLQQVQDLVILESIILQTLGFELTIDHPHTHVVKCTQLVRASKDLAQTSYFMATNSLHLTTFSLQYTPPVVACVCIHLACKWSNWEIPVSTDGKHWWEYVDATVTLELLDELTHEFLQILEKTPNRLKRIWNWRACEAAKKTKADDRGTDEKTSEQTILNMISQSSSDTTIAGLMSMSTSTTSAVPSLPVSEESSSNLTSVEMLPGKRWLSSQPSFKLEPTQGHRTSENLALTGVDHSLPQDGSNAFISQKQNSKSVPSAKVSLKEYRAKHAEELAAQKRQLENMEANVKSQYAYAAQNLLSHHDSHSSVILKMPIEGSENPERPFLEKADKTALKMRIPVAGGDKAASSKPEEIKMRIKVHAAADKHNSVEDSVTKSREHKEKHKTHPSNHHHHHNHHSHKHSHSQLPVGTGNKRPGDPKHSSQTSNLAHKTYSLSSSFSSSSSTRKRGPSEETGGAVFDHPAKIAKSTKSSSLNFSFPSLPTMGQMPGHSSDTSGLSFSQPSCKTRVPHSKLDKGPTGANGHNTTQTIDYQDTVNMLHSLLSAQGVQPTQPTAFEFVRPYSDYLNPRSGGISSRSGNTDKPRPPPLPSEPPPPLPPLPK
T4 sequence (P50613 whole entry): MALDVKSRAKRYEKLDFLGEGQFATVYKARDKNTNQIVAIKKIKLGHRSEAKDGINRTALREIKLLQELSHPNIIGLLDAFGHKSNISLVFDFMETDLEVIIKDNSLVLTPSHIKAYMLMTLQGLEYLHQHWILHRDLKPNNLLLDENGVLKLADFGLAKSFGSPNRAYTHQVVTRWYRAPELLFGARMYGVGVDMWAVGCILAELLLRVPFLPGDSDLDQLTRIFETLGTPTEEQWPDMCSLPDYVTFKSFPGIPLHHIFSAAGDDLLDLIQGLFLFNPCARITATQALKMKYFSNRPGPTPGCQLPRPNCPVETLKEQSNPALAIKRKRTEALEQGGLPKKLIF
T4 sequence (P51946 whole entry partner): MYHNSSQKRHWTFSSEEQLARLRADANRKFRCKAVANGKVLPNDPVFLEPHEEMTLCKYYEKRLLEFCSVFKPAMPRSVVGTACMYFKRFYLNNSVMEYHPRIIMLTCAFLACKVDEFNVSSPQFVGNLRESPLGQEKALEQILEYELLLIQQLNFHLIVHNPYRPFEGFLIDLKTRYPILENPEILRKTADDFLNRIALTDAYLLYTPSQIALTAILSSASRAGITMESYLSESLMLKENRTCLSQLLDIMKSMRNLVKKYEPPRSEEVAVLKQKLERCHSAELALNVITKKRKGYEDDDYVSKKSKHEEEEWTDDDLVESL
T4 sequence (P51948 whole entry partner): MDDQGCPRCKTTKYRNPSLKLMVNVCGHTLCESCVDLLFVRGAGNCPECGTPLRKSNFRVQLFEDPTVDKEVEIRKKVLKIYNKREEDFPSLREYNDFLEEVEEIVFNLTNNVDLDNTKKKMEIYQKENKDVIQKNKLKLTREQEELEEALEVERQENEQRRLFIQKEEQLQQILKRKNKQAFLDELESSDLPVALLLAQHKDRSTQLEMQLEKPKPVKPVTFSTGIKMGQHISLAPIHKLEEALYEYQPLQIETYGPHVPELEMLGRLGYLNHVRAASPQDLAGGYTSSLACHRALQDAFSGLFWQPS
T2 sequence (Q00535 whole entry): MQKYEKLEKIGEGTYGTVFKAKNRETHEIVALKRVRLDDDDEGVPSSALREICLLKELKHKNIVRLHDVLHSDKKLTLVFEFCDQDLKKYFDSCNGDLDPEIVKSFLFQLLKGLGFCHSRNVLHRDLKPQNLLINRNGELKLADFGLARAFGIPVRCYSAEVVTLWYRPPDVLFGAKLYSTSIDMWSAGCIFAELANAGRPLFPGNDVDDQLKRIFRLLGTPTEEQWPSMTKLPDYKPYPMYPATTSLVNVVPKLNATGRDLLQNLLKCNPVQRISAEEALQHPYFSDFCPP
T2 sequence (Q15078 whole entry partner): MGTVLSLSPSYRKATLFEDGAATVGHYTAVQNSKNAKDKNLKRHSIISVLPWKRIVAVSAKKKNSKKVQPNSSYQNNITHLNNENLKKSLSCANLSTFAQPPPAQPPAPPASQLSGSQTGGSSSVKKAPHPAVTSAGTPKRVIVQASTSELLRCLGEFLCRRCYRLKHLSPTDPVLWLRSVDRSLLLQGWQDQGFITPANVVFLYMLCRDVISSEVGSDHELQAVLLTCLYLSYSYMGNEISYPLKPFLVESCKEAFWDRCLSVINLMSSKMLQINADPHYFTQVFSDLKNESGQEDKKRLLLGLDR
T1 sequence (P06493 whole entry, species assumed): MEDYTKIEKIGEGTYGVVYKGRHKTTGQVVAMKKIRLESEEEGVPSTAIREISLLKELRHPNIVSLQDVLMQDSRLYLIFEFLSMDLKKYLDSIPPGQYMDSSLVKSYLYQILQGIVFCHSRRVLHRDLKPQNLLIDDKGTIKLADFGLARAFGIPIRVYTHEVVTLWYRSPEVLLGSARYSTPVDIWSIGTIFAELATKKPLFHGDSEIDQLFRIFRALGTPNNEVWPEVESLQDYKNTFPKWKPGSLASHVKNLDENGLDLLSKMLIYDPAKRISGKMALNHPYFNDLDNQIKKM
T1 sequence (P14635 whole entry partner, species assumed): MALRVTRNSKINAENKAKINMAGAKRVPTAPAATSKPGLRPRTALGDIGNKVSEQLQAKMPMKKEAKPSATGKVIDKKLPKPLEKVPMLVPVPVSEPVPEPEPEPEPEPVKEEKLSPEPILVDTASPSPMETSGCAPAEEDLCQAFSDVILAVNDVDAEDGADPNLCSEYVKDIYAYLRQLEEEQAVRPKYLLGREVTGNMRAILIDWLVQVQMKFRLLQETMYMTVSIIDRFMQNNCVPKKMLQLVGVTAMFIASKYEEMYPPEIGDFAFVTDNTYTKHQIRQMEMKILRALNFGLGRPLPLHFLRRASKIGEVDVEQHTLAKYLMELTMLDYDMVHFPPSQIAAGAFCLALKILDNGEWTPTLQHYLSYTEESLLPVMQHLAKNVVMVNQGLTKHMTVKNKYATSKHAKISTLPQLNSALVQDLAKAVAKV

| Compound | IC50 (CDK1/cyclin B) [nM] | melting point [°C] | remaining activity at 0.1 µM (CDK5/p35) [%] | remaining activity at 1 µM (CDK5/p35) [%] | remaining activity at 0.1 µM (CDK9/Cyclin T1) [%] | remaining activity at 1 µM (CDK9/Cyclin T1) [%] | remaining activity at 0.1 µM (CDK7/cyclin H/MAT1) [%] | remaining activity at 1 µM (CDK7/cyclin H/MAT1) [%] | IC50 (Hep3B) [nM] | IC50 ([1]; 24 h) [nM] | IC50 ([1]; 72 h) [nM] | Wound area ([2]; 100 nM) | Wound area ([2]; 1000 nM) |
| --- | --- | --- | --- | --- | --- | --- | --- | --- | --- | --- | --- | --- | --- |
| COc1ccccc1-c1ccc(CNc2nc(NC3CCC(N)CC3)nc3c2ncn3C2CCCC2)cc1 (centres unmarked) [BP16, N^2-(4-amino-cyclohexyl)-9-cyclopentyl-N^6-(2′-methoxy-biphenyl-4-ylmethyl)-9H-purine-2,6-diamine] | 301 | 178 to 180 | – | – | – | – | – | – | 532 | – | – | – | – |
| NC1CCC(Nc2nc(NCc3ccc(-c4cccc(F)c4)nc3)c3ncn(C4CCCC4)c3n2)CC1 (centres unmarked) [BP19, N^2-(4-amino-cyclohexyl)-9-cyclopentyl-N^6-[6-(3-fluoro-phenyl)-pyridin-3-ylmethyl]-9H-purine-2,6-diamine] | 77 | 121 to 122 | 37.7 | 25.6 | 26.6 | 0.83 | 55 | 25 | 85 | 21800 | 370 | + | ++ |
| NC1CCC(Nc2nc(NCc3ccc(-c4ccoc4)cc3)c3ncn(C4CCCC4)c3n2)CC1 (centres unmarked) [BP13, N^2-(4-amino-cyclohexyl)-9-cyclopentyl-N^6-(4-furan-3-yl-benzyl)-9H-purine-2,6-diamine] | 202 | 154 to 156 | – | – | – | – | – | – | 518 | – | – | – | – |
| NC1CCC(Nc2nc(NCc3ccc(-c4ccco4)cc3)c3ncn(C4CCCC4)c3n2)CC1 (centres unmarked) [BP4, N^2-(4-amino-cyclohexyl)-9-cyclopentyl-N^6-(4-furan-2-yl-benzyl)-9H-purine-2,6-diamine] | 148 | 157 to 159 | – | – | – | – | – | – | 708 | 15700 | 450 | 0 | ++ |
| NC1CCC(Nc2nc(NCc3ccc(-c4cccs4)cc3)c3ncn(C4CCCC4)c3n2)CC1 (centres unmarked) [BP2, N^2-(4-amino-cyclohexyl)-9-cyclopentyl-N^6-(4-thiophen-2-yl-benzyl)-9H-purine-2,6-diamine] | 119 | 225 to 226 | – | – | – | – | – | – | 460 | – | – | – | – |
| NC1CCC(Nc2nc(NCc3ccc(-c4ccsc4)cc3)c3ncn(C4CCCC4)c3n2)CC1 (centres unmarked) [BP5, N^2-(4-amino-cyclohexyl)-9-cyclopentyl-N^6-(4-thiophen-3-yl-benzyl)-9H-purine-2,6-diamine] | 183 | 114 to 118 | – | – | – | – | – | – | 405 | – | – | – | – |
| NC1CCC(Nc2nc(NCc3ccc(-c4cccc(F)c4)cc3)c3ncn(C4CCCC4)c3n2)CC1 (centres unmarked) [BP12, N^2-(4-amino-cyclohexyl)-9-cyclopentyl-N^6-(3′-fluoro-biphenyl-4-ylmethyl)-9H-purine-2,6-diamine] | 422 | 146 to 148 | – | – | – | – | – | – | 418 | – | – | – | – |

Now from value to compound, other results behind:

| IC50 (CDK1/cyclin B) [nM] | melting point [°C] | remaining activity at 0.1 µM (CDK5/p35) [%] | remaining activity at 1 µM (CDK5/p35) [%] | remaining activity at 0.1 µM (CDK9/Cyclin T1) [%] | remaining activity at 1 µM (CDK9/Cyclin T1) [%] | remaining activity at 0.1 µM (CDK7/cyclin H/MAT1) [%] | remaining activity at 1 µM (CDK7/cyclin H/MAT1) [%] | Compound | IC50 (Hep3B) [nM] | IC50 ([1]; 24 h) [nM] | IC50 ([1]; 72 h) [nM] | Wound area ([2]; 100 nM) | Wound area ([2]; 1000 nM) |
| --- | --- | --- | --- | --- | --- | --- | --- | --- | --- | --- | --- | --- | --- |
| 66 | 165 to 167 | 31.9 | 2.95 | 15.4 | 1.68 | 49.1 | 17.3 | NC1CCC(Nc2nc(NCc3ccc(-c4ccoc4)nc3)c3ncn(C4CCCC4)c3n2)CC1 (centres unmarked) [BP36, N^2-(4-amino-cyclohexyl)-9-cyclopentyl-N^6-(6-furan-3-yl-pyridin-3-ylmethyl)-9H-purine-2,6-diamine] | 130 | 20800 | 190 | + | ++ |
| 169 | 139 to 140 | 65 | 8.7 | 32.8 | 2.39 | 64.1 | 33.5 | NC1CCC(Nc2nc(NCc3ccc(-c4ccsc4)nc3)c3ncn(C4CCCC4)c3n2)CC1 (centres unmarked) [BP35, N^2-(4-amino-cyclohexyl)-9-cyclopentyl-N^6-(6-thiophen-3-yl-pyridin-3-ylmethyl)-9H-purine-2,6-diamine] | 207 | > 50000 | 180 | 0 | ++ |
| 215 | 164 to 166 | 88.2 | 23.4 | 49 | 7.74 | 72 | 48.5 | OC1CCC(Nc2nc(NCc3ccc(-c4ccco4)nc3)c3ncn(C4CCCC4)c3n2)CC1 (centres unmarked) [BP21, 4-{9-cyclopentyl-6-[(6-furan-2-yl-pyridin-3-ylmethyl)-amino]-9H-purine-2-ylamino}-cyklohexanol] | 487 | – | – | – | – |
| 152 | 168 to 170 | – | – | – | – | – | – | Nc1ccccc1-c1ccc(CNc2nc(NC3CCC(N)CC3)nc3c2ncn3C2CCCC2)cc1 (centres unmarked) [BP32, N^2-(4-amino-cyclohexyl)-9-cyclopentyl-N^6-(2′-amino-biphenyl-4-ylmethyl)-9H-purine-2,6-diamine] | 400 | – | – | – | – |
| 100 | 173 to 175 | 87.8 | 89 | 93.4 | 82.8 | 70 | 93.9 | Nc1ccccc1-c1ccc(CNc2nc(NC3CCC(N)CC3)nc3c2ncn3C2CCCC2)cn1 (centres unmarked) [BP22, N^2-(4-amino-cyclohexyl)-9-cyclopentyl-N^6-[6-(2-amino-phenyl)-pyridin-3-ylmethyl]-9H-purine-2,6-diamine] | 487 | – | – | – | – |
| 58 | 186 to 187 | – | – | – | – | – | – | NC1CCC(Nc2nc(NCc3ccc(-n4cccn4)cc3)c3ncn(C4CCCC4)c3n2)CC1 (centres unmarked) [BP24, N^2-(4-amino-cyclohexyl)-9-cyclopentyl-N^6-(4-pyrazol-1-yl-benzyl)-9H-purine-2,6-diamine] | 115 | > 50000 | 170 | + | ++ |
